The target in data set [1] is T1, ATX enzyme in human plasma (Homo sapiens, UniProt Q13822).
T1 construct: Whole blood was collected from healthy volunteers and anticoagulated with heparin; from tissue; host or cells: human plasma (heparin) from healthy volunteers
The experiment in a line: Inhibition of activity of ATX enzyme in human plasma (LPA18:2 formation, LC-MSMS). Particulars: for inhibitory effect on ATX enzyme in human plasma compared with control compounds 1 and 2: comparison in words; for IC50: human plasma, 37° C., 3 h, LPA18:2 formation, read-out: IC50, inhibitory effect on activity of ATX enzyme in human plasma. The format is biochemical. Here is the method: Whole blood was collected from healthy volunteers and anticoagulated with heparin. The blood collection tubes were centrifuged at 3,000 rpm for 10 min, and the plasma was taken and stored at −80° C. for use.
The compound was serially diluted with DMSO according to the conventional concentration requirements, then 3 μL of each of the diluted compound solutions was added to a 96-well plate, and 147 μL of PBS was added to each well containing 3 μL of the compound solution. After mixing homogenously, 50 μL of the mixture was taken out and added to a new 96-well plate. The human plasma was taken out from the −80° C. refrigerator and thawed through rapid shaking in a 37° C. water bath. 50 μL of the human plasma was taken and added to the 96-well plate containing 50 μL of the diluted compound (the final system contained 1% DMSO). The group without the compound was set as the positive group. The 96-well plate was shaken and mixed uniformly, and incubated at 37° C. for 3 h. A blank group was also provided, and the plasma of the blank group was stored at −80° C. The blank group is provided to determine the baseline concentration of endogenous LPA.
After the incubation was finished, the blank group was thawed on ice and transferred to an incubation plate. Excess acetonitrile containing the internal standard LPA17: 0 was added to the incubation plate to precipitate the plasma protein. After vortex centrifugation, the supernatant was taken and diluted, and a peak area of LPA18: 2 and a peak area of internal standard LPA17: 0 were detected using LC-MSMS mass spectrometry.
(§1) A ratio of the peak area of LPA18: 2 to the peak area of internal standard LPA17: 0 was calculated, and a formation inhibition rate of LPA18: 2 was calculated according to the following formula:
(§2) Inhibition rate (%)=100−(compound group with different concentrations−blank group)/(positive group−blank group)*100
According to the inhibition rates of different concentrations of the compound, the IC50 value of the compound for inhibiting activity of ATX enzyme in human plasma was calculated.

Data set [2] in a line: Pharmacokinetic test in mice. Particulars: mouse, plasma; male CD-1 mice, oral gavage 10 mg/kg. The format is in vivo. As to the method: (§3) For the pharmacokinetic test of mice, male CD-1 mice (20 g to 25 g) were used, and fasted overnight. The mice were orally administered by gavage (10 mg/kg). […] The blood samples were centrifuged at 8,000 rpm at 4° C. for 6 min, and plasma was collected and stored at −20° C. The plasma at each time point was taken and added with an acetonitrile solution containing internal standard in 3 to 5 times the amount, vortexed and mixed for 1 min, and centrifuged at 13,000 rpm at 4° C. for 10 min. The supernatant was collected, added with water in 3 times the amount, and mixed. An appropriate amount of the mixture was taken for LC-MS/MS analysis. The main pharmacokinetic parameters were analyzed using WinNonlin 7.0 software with non-compartmental model.

In a further data set the target is T2, autotaxin (ATX) enzyme (Homo sapiens, UniProt Q13822).
T2 construct: purchased Cayman 700580
Put plainly: Autotaxin (ATX) enzyme activity inhibition test (Cayman Autotaxin Inhibitor Screening Assay Kit). Particulars: 37° C., 30 min, OD405, read-out: IC50, inhibitory effect on ATX enzyme activity. The format is biochemical. Here is the method: The inhibitory effects of the compounds on the autotaxin enzyme were detected using the Autotaxin Inhibitor Screening Assay Kit (Cayman, 700580). […] Subsequently, the 8 concentrations were diluted with Autotaxin Assay buffer (1×) provided in the kit into 19× compound working solutions (DMSO content was 1.9%). The Autotaxin Assay Reagent (10×) was taken out and diluted by 10 times with Autotaxin Assay Buffer (1×). The Autotaxin Substrate was taken out, dissolved by adding 1.2 mL of Autotaxin Assay Buffer (1×), mixed evenly and let stand by at room temperature. In a 96-well plate, 150 μL of Autotaxin Assay Buffer (1×), 10 μL of the prepared and diluted 19× compound working solution, 10 μL of Autotaxin Assay Reagent (1×), and 20 μL of the dissolved Autotaxin Substrate were added to each of the wells for each concentration, and homogenously mixed. The 96-well plate was shaken in a constant temperature shaker at 37° C. and incubated in the dark for 30 min, and then the plate was taken out and placed on a microplate reader to read OD405.

Data set [3] can be described thus: Pharmacokinetic test in rats. The data set is classed as in vivo. Conditions: male SD rats, oral gavage 10 mg/kg. Here is the method:
as §3, with “rats, 3” for “mice,”, “SD rats (180-240” for “CD-1 mice (20 g to 25”, “rats” for “mice”

Data set [4] concerns the target T3, hERG channels (CHO cell line stably expressing hERG) (Homo sapiens, UniProt Q12809). Put plainly: cell-based.
Experimental: (§4) Full-automatic electrophysiological patch clamp QPatch was used to detect the inhibitory effect of compounds on hERG. Cells used in this test were CHO cell line transfected with cDNA of hERG and stably expressing hERG channels (provided by Sophion Bioscience, Denmark), and the cell passage number was P24. The cells were cultured in a medium containing the following components (all purchased from Invitrogen): Ham's F12 medium, inactivated fetal bovine serum (10% (v/v)), hygromycin B (100 μg/ml), and Geneticin (100 μg/ml). CHO hERG cells were grown in a petri dish containing the above-mentioned medium and cultured in an incubator at 37° C. and containing 5% CO2.
(§5) The test compound was prepared into a 10 mM stock solution in DMSO solvent, the compound was diluted to 3 mM, 1 mM, 0.3 mM, and 0.1 mM with DMSO, and then the compound was diluted to 30 μM, 10 μM, 3 μM, 1 μM, 0.3 μM and 0.1 μM with the extracellular fluid, so that except that the final concentration of DMSO in the 30 μM compound was 0.3%, the final concentration of DMSO in compound solutions of all other concentrations was 0.10%.
(§6) The CHO hERG cells, after being digested and resuspended, were added to the full-automatic QPatch system (Sophion, Denmark), and subjected to a test according to the following preset procedure.
(§7) After reaching the ruptured whole cell configuration state in the initial stage, the whole cell current was recorded at room temperature (about 25° C.) for at least 120 seconds in order to achieve stability. The stable cells were selected for the test. During the whole test, the cells were clamped at a voltage of −80 mV, the cell clamp voltage was depolarized to +20 mV to activate the hERG potassium channels, and after 2.5 seconds, the cell clamp voltage was at −50 mV to eliminate inactivation and generate outward tail current. The peak tail current was used as the value of the hERG current. The voltage mode described above was applied to the cells for electrophysiological test every 15 seconds. An intracellular liquid containing 0.1% dimethyl sulfoxide (solvent) was added to the cells to establish a baseline, and then the current was allowed to stabilize for 3 min. After the compound solution was added, the cells were kept in the test environment until the effect of the compound reached a steady state or until reaching 4 min. In the test experiments with different concentration gradients of the compound, the compound was added from low to high concentration to the clamped cells. After the compound test was finished, the cells were washed with the extracellular fluid until the current returned to a stable state. The test data was analyzed by Qpatch analysis software provided by Sophion, Excel, and Graphpad Prism, etc.
Data set [5] has as its target T3, hERG channels (CHO cell line stably expressing hERG). Put plainly: Inhibitory effect on hERG by full-automatic electrophysiological patch clamp QPatch. Conditions: hERG IC50 (μM) divided by ATX enzyme IC50 (nM).
Experimental: as §4, §5, §6, §7
The target of a further data set is T4, ATX enzyme in rat plasma (Rattus norvegicus, UniProt Q64610).
T4 construct: Whole blood was collected from rats and anticoagulated with heparin; from tissue; host or cells: rat plasma (heparin)
The experiment in a line: Inhibition of activity of ATX enzyme in rat plasma (LPA18:2 formation, LC-MSMS). The data set is classed as biochemical. Conditions: for inhibitory activity on ATX enzyme in rat plasma compared with control compounds 1 and 2: comparison in words. Here is the method: Whole blood was collected from rats and anticoagulated with heparin. The blood collection tubes were centrifuged at 3,000 rpm for 15 min, and the plasma was placed on ice for use.
The compound was serially diluted with DMSO: 30% ACN=1:19 according to the conventional concentration requirements, and then placed on ice. 147 μL of plasma, which was placed on ice, was added to a 96-well plate, and then 3 μL of each of the gradient solutions of the compound (finally 1[…] DMSO) was added. A group containing none of the compounds was set as the positive group. The 96-well plate was mixed uniformly, and incubated at 37° C. for 3 h. In addition, a blank group was also provided. At the beginning of the incubation, the plasma of blank group was added to with excessive acetonitrile containing the internal standard LPA17: 0 to precipitate the plasma protein, vortexed to mix, and stored at 4° C. The blank group was provided to determine the baseline concentration of endogenous LPA.
A peak area of LPA18: 2 and a peak area of internal standard LPA17: 0 were detected using LC-MSMS mass spectrometry.
as §1, §2
According to the inhibition rates of different concentrations of the compound, the IC50 value of the compound for inhibiting activity of ATX enzyme in rat plasma, was calculated.

Data set [6] in a line: Human liver microsome stability test. Particulars: for Remaining percentage (%) of compound after incubation for 30 min: NADPH, 37° C.; for half-life at 1 µM: human.
Experimental: The human liver microsome stability test was performed by incubating the compound and human liver microsomes in vitro for detection. First, the test compound was prepared into a 10 mM stock solution in DMSO solvent, and then the compound was diluted to 0.5 mM with acetonitrile. Human liver microsomes (Corning) were diluted with PBS and prepared as a microsome/buffer solution, which was used to dilute the 0.5 mM compound solution into a working solution. […] A deep-well multi-well plate was taken, 30 μL of the working solution and 15 μL of pre-warmed NADPH solution (6 mM) were sequentially added to each well to initiate a reaction, and the reaction was incubated at 37° C. […] After centrifugation, the supernatant was collected, and added with purified water in a ratio of 1:1 to perform LC-MS/MS detection. […] T1/2 was calculated by using Excel.
Data set [7] can be described thus: Pharmacokinetic test in canines. The data set is classed as in vivo. Particulars: dog, plasma; male beagle dogs, oral gavage 5 mg/kg. Here is the method:
as §3, with “rats, 3” for “mice,”, “SD rats (180-240” for “CD-1 mice (20 g to 25”, “rats” for “mice”
For the pharmacokinetics test of canines, 3 male beagle dogs (8 to 10 kg) were used, and fasted overnight. The dogs were orally administered by gavage (5 mg/kg). The rest of the operation is the same as the pharmacokinetic test in rats.

The nature of data set [8]: Thermodynamic solubility test. The format is physicochemical. Conditions: thermodynamic from solid. As to the method: The compound was accurately weighed, and the prepared phosphate buffer (pH 7.4), FeSSIF solution (pH 5.8) and FaSSGF solution (pH 1.6) were added to prepare a solution with a concentration of 4 mg/mL, which was shaken at 1,000 rpm for 1 hour, and then incubated overnight at room temperature. After the incubation, the solution was centrifuged at 12,000 rpm for 10 min to remove undissolved particles, and the supernatant was transferred to a new centrifuge tube. The supernatant was diluted appropriately, then added with an acetonitrile solution containing the internal standard, and quantified using a standard curve prepared with the same matrix.

The mark [9] stands for this setting: rat plasma, 37° C., 3 h, LPA18:2 formation, read-out: IC50, inhibitory effect on activity of ATX enzyme in rat plasma.

≈ marks a conversion by molar mass, not a printed value. Read-outs that look alike come from different tables or passages of the source.

This is an account of results in US20220204479A1, “PYRIMIDINE COMPOUND AND PREPARATION METHOD THEREFOR” (Wuhan Humanwell Innovative Drug Research And Development …, priority 2019, published 2022).

T3 sequence (Q12809 whole entry): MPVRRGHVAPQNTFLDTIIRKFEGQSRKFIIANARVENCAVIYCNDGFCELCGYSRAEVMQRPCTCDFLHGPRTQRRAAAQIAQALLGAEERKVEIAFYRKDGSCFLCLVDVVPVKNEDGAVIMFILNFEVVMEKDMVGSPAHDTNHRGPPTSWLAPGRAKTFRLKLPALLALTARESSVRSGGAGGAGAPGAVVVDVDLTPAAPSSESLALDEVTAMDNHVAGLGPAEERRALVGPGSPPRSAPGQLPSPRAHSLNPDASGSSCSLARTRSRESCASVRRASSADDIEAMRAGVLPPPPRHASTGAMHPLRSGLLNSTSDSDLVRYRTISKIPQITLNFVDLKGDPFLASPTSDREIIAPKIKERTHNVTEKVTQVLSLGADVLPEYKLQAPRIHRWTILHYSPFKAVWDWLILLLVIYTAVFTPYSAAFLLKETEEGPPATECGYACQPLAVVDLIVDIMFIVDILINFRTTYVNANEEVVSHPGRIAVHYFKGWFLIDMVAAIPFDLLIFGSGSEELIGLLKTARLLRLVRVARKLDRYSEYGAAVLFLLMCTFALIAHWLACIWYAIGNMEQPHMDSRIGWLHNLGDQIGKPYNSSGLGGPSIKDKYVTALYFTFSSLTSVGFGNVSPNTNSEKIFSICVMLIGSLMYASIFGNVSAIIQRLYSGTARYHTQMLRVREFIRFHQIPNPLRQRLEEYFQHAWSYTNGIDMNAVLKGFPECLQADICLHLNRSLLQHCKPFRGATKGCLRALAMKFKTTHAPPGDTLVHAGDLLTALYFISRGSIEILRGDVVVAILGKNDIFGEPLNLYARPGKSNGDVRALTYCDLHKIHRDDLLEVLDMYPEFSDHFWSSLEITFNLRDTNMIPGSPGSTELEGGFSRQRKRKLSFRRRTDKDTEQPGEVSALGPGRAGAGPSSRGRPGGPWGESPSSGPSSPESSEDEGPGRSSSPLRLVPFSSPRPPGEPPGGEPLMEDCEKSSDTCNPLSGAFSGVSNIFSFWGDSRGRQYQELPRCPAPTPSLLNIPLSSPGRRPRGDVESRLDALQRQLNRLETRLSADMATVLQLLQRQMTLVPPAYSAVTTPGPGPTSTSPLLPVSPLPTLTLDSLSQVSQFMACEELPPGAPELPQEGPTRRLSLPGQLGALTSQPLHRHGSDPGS

Turning to `O=C(c1cnc(NC2Cc3ccccc3C2)nc1)N1CC2(CC(OCc3c[nH]nn3)C2)C1` [Compound I-9, (6-((1H-1,2,3-triazol-4-yl)methoxy)-2-azaspiro[3.3]heptan-2-yl)(2-((2,3-dihydro-1H-inden-2-yl)amino)pyrimidin-5-yl)methanone], the “inhibitory effect on ATX enzyme in human plasma compared with control compounds 1 and 2” value in [1] was “higher inhibitory effect on ATX enzyme in human plasma than the control compounds 1 and 2”. Besides, the IC50 (usually the concentration that inhibits the measured activity by half) in [1] is 2.74 nM; at autotaxin (ATX) enzyme, 1.43 nM; in data set [4] it was 13400 nM; on ATX enzyme in rat plasma (setting [9]), 2.83 nM. In addition, the AUC(0-t) was determined as 4590 ng·h/mL in [2]; 1410 ng·h/mL in data set [3] (Sprague-Dawley, rat, in vivo, read-out: AUC0-t); 9410 ng·h/mL in data set [7]. For the same compound, the Cmax (usually the maximum level reached in the sampled fluid or tissue) stood at 3870 ng/mL in data set [2]; 973 ng/mL in data set [3] (Sprague-Dawley, rat, in vivo, read-out: Cmax); 2090 ng/mL in data set [7]. Besides, the Tmax (as a rule, the time at which the peak concentration occurs) in data set [2] stood at 19.8 min; in data set [3] (Sprague-Dawley, rat, in vivo), 25.2 min; in [7], 70.2 min. Further, in [5], the “hERG IC50/ATX IC50” value is 13.4/1.43 = 9.37. The “inhibitory activity on ATX enzyme in rat plasma compared with control compounds 1 and 2” value against ATX enzyme in rat plasma was “higher inhibitory activity on ATX enzyme in rat plasma than the control compounds 1 and 2”. Moreover, the “Remaining percentage (%) of compound after incubation for 30 min” value (shortened to “Remaining percentage (%) of compound”) in data set [6] (human liver microsomes) is on record as 95.5%. Besides, in data set [6] (microsomes), the half-life (commonly the time in which the quantity being followed falls by half) at 1 µM amounted to 242 min.

Consider `O=C(c1cnc(NC2Cc3ccccc3C2)nc1)N1CCC(COCc2cn[nH]n2)CC1` [Compound I-1, (4-(((2H-1,2,3-triazol-4-yl)methoxy)methyl)piperidin-1-yl)(2-((2,3-dihydro-1H-inden-2-yl)amino)pyrimidin-5-yl)methanone], for which the “inhibitory effect on ATX enzyme in human plasma compared with control compounds 1 and 2” value in data set [1] was “higher inhibitory effect on ATX enzyme in human plasma than the control compounds 1 and 2”. The IC50 in data set [1] stood at 8.73 nM; at autotaxin (ATX) enzyme, 2.05 nM; in data set [4], 7930 nM; on ATX enzyme in rat plasma (setting [9]), 6.49 nM. Besides, the AUC(0-t) stood at 2390 ng·h/mL in data set [2]; 5720 ng·h/mL in [3] (Sprague-Dawley, rat, plasma, read-out: AUC0-t); 17600 ng·h/mL in data set [7]. In addition, the Cmax was found to be 1860 ng/mL in data set [2]; 3180 ng/mL in data set [3] (Sprague-Dawley, rat, plasma, read-out: Cmax); 3670 ng/mL in data set [7]. For the same compound, the Tmax worked out at 25.2 min in data set [2]; 30 min in data set [3] (Sprague-Dawley, rat, plasma); 70.2 min in data set [7]. Besides, in [5], the “hERG IC50/ATX IC50” value is 7.93/2.05 = 3.87. Besides, the “inhibitory activity on ATX enzyme in rat plasma compared with control compounds 1 and 2” value against ATX enzyme in rat plasma was “higher inhibitory activity on ATX enzyme in rat plasma than the control compounds 1 and 2”. For the same compound, the “Remaining percentage (%) of compound” value in data set [6] (human liver microsomes) is 85.6%. The half-life at 1 µM in [6] (human liver microsomes) came to 99 min.

For the compound `O=C(COCCc1cnn[nH]1)N1Cc2cnc(NC3Cc4ccccc4C3)nc2C1` [Control compound 1, reference compound], the AUC(0-t) in [2] was 2570 ng·h/mL; in [3] it was 4874 ng·h/mL; in data set [7] it was 10100 ng·h/mL. Moreover, the figures for the Cmax in data set [2], in data set [3] and in data set [7] were 1500 ng/mL, 2591 ng/mL and 2390 ng/mL, respectively. Also, the Tmax in data set [2] came to 15 min; in data set [3] (Sprague-Dawley, rat, plasma), 25.2 min; in data set [7] it was 60 min. Moreover, the IC50 in data set [4] came out at 6690 nM; against ATX enzyme in rat plasma it was 13.6 nM. Further, the solubility (in general, the concentration that dissolves in the medium under given conditions) in [8] (FaSSGF solution, fassgf or other biorelevant, FaSSGF pH 1.6, overnight at room temperature, read-out: Solubility, FaSSGF (pH 1.6)) was 66.5 µg/mL (≈ 164 µM); in data set [8] (FeSSIF solution, FeSSIF pH 5.8, overnight at room temperature, read-out: Solubility, FeSSIF (pH 5.8)), 18.3 µg/mL (≈ 45.1 µM); in data set [8] (phosphate buffer (PBS), aqueous buffer, PBS pH 7.4, overnight at room temperature, read-out: Solubility, PBS (pH 7.4)), 6.3 µg/mL (≈ 15.5 µM). Besides, the “Remaining percentage (%) of compound” value in [6] (human liver microsomes) was 41.2%. Besides, the half-life at 1 µM in data set [6] (microsomes) is 24.1 min.
